Test results: the NIST ThermoML archive (doi:10.1016/j.jct.2011.05.030)
± gives the expanded uncertainty stated by the source.

How the values were obtained:
[1] = Molar enthalpy of transition or fusion; conditions: Crystal; DSC
[2] = Crystal; for vapor or sublimation pressure: Calculated from knudsen effusion weight loss; for Normal melting temperature: DTA

c1cc2ccc3ccc4ccc5cccc6c(c1)c2c3c4c56 [benzo[ghi]perylene]
Conditions	Molar enthalpy of transition or fusion [kcal/mol]	Normal melting temperature [°C]
[1]	3.9 ± 0.669	–
[2]	–	272.50 ± 0.5

[2]
Conditions	vapor or sublimation pressure [kPa]
399.1 K	4.16e-06 ± 2.2e-07
404 K	7e-06 ± 3.6e-07
409 K	1.15e-05 ± 6e-07
414.4 K	1.79e-05 ± 9e-07
419 K	2.83e-05 ± 1.4e-06
424 K	4.36e-05 ± 2.2e-06
429 K	6.54e-05 ± 3.3e-06
434.1 K	0.000104 ± 5e-06
439 K	0.000138 ± 7e-06
441 K	0.000207 ± 1e-05
449.1 K	0.000303 ± 1.5e-05
454.1 K	0.000432 ± 2.2e-05

c1ccc2c(c1)ccc1cc3c(ccc4ccccc43)cc12 [dibenz[a,h]anthracene]
Conditions	Molar enthalpy of transition or fusion [kcal/mol]	Normal melting temperature [°C]
[1]	5.86 ± 0.693	–
[2]	–	269.50 ± 0.5

[2]
Conditions	vapor or sublimation pressure [kPa]
399.2 K	5.11e-06 ± 2.7e-07
404 K	5.53e-06 ± 2.9e-07
409.1 K	9.22e-06 ± 4.7e-07
414 K	1.39e-05 ± 7e-07
419.1 K	3.95e-05 ± 2e-06
424.2 K	5.45e-05 ± 2.8e-06
429.2 K	8.89e-05 ± 4.5e-06
434.2 K	0.000112 ± 6e-06
439.1 K	0.000174 ± 9e-06
444.1 K	0.00028 ± 1.4e-05
449.1 K	0.000369 ± 1.9e-05

c1ccc2c(c1)-c1cccc3c1c-2cc1ccccc13 [benz[e]acephenanthrylene]
Conditions	Molar enthalpy of transition or fusion [kcal/mol]	Normal melting temperature [°C]
[1]	4.37 ± 0.669	–
[2]	–	168.00 ± 0.5

[2]
Conditions	vapor or sublimation pressure [kPa]
364.1 K	4.7e-06 ± 2.5e-07
369.3 K	8.12e-06 ± 4.2e-07
374.2 K	1.46e-05 ± 7e-07
377.2 K	1.9e-05 ± 1e-06
379.2 K	2.41e-05 ± 1.2e-06
382.2 K	3.21e-05 ± 1.6e-06
384.2 K	3.95e-05 ± 2e-06
387.2 K	5.4e-05 ± 2.7e-06
389.1 K	6.22e-05 ± 3.1e-06
392.1 K	8.51e-05 ± 4.3e-06
394.2 K	0.000101 ± 5e-06
397.1 K	0.000131 ± 7e-06
399.1 K	0.000159 ± 8e-06
404.1 K	0.00023 ± 1.2e-05
409 K	0.000356 ± 1.8e-05
414.1 K	0.000533 ± 2.7e-05

c1ccc2cc3c(cc2c1)-c1cccc2cccc-3c12 [benzo[k]fluoranthene]
Conditions	Molar enthalpy of transition or fusion [kcal/mol]	Normal melting temperature [°C]
[1]	6.33 ± 0.693	–
[2]	–	217.00 ± 0.5

[2]
Conditions	vapor or sublimation pressure [kPa]
384.2 K	1.63e-05 ± 8e-07
389.2 K	2.42e-05 ± 1.2e-06
394.1 K	3.62e-05 ± 1.8e-06
399.1 K	5.62e-05 ± 2.8e-06
404 K	8.86e-05 ± 4.4e-06
409 K	0.000136 ± 7e-06
411 K	0.000157 ± 8e-06
419 K	0.000383 ± 1.9e-05
424 K	0.000557 ± 2.8e-05

c1ccc2c(c1)-c1ccc3ccc4cccc5cc-2c1c3c45 [indeno[1,2,3-cd]pyrene]
Conditions	Molar enthalpy of transition or fusion [kcal/mol]	Normal melting temperature [°C]
[1]	5.47 ± 0.669	–
[2]	–	162.00 ± 0.5

[2]
Conditions	vapor or sublimation pressure [kPa]
384.1 K	5.38e-06 ± 2.8e-07
389.1 K	7.96e-06 ± 4.1e-07
394.2 K	1.3e-05 ± 7e-07
399.2 K	2.19e-05 ± 1.1e-06
404.1 K	3.28e-05 ± 1.7e-06
409.1 K	5.33e-05 ± 2.7e-06
414.1 K	8.53e-05 ± 4.3e-06
419.1 K	0.000133 ± 7e-06
424.1 K	0.000201 ± 1e-05
